Measured values reported in US9149038B2, “4-amino-6-(heterocyclic)picolinates and 6-amino-2-(heterocyclic)pyrimidine-4-carboxylates and their use as herbicides” (Dow AgroSciences LLC, priority 2013, dated 2015).
Where two headings read alike, the source gives them in different places.

Legend:
[1] = tested on: Key Broadleaf Weed and Crop Species; assay: Post-Emergent Test II: postemergent herbicidal activity, visual rating after 14 d (Table 7); format: in vivo; settings: post-emergence, 336 h; for pest or weed control at 35 g/ha: 35 g ai/ha; for pest or weed control at 70 g/ha: 70 g ai/ha; for pest or weed control at 140 g/ha: 140 g ai/ha
Procedure, shortened: (§1)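 Track-sprayed young seedlings (first/second true leaf) at 187 L/ha across a 2-fold rate series from the high rate down to 1/16×. Kept in greenhouse at 23-29° C day, subirrigated. Injury rated by eye after 14 d, 0 = no injury, 100 = complete kill.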

[2] = tested on: Key Grass and Sedge Weeds as well as Grass Crops; assay: Post-Emergent Test II: postemergent herbicidal activity, visual rating after 14 d (Table 8); format: in vivo; settings: post-emergence, 336 h; for pest or weed control at 35 g/ha: 35 g ai/ha; for pest or weed control at 70 g/ha: 70 g ai/ha; for pest or weed control at 140 g/ha: 140 g ai/ha
Procedure, shortened: as §1

[3] = lambsquarters (Chenopodium album), read-out: Visual Growth Reduction (%) 14 Days After Application CHEAL
[4] = oilseed rape, canola (Brassica napus), read-out: Visual Growth Reduction (%) 14 Days After Application BRSNN
[5] = redroot pigweed (Amaranthus retroflexus), read-out: Visual Growth Reduction (%) 14 Days After Application AMARE
[6] = sunflower (Helianthus annuus), read-out: Visual Growth Reduction (%) 14 Days After Application HELAN
[7] = velvetleaf (Abutilon theophrasti), read-out: Visual Growth Reduction (%) 14 Days After Application ABUTH
[8] = wild poinsettia (Euphorbia heterophylla), read-out: Visual Growth Reduction (%) 14 Days After Application EPHHL
[9] = barnyardgrass (Echinochloa crus-galli), read-out: Visual Growth Reduction (%) 14 Days After Application ECHCG
[10] = giant foxtail (Setaria faberi), read-out: Visual Growth Reduction (%) 14 Days After Application SETFA
[11] = maize, corn (Zea mays), read-out: Visual Growth Reduction (%) 14 Days After Application ZEAMX
[12] = rice (Oryza sativa), read-out: Visual Growth Reduction (%) 14 Days After Application ORYSA
[13] = wheat, spring (Triticum aestivum), read-out: Visual Growth Reduction (%) 14 Days After Application TRZAS
[14] = yellow nutsedge (Cyperus esculentus), read-out: Visual Growth Reduction (%) 14 Days After Application CYPES

| Compound | pest or weed control at 35 g/ha [1, 3] [%] | pest or weed control at 70 g/ha [1, 3] [%] | pest or weed control at 140 g/ha [1, 3] [%] | pest or weed control at 35 g/ha [1, 4] [%] | pest or weed control at 70 g/ha [1, 4] [%] | pest or weed control at 140 g/ha [1, 4] [%] | pest or weed control at 35 g/ha [1, 5] [%] | pest or weed control at 70 g/ha [1, 5] [%] | pest or weed control at 140 g/ha [1, 5] [%] | pest or weed control at 35 g/ha [1, 6] [%] | pest or weed control at 70 g/ha [1, 6] [%] | pest or weed control at 140 g/ha [1, 6] [%] | pest or weed control at 35 g/ha [1, 7] [%] | pest or weed control at 70 g/ha [1, 7] [%] | pest or weed control at 140 g/ha [1, 7] [%] | pest or weed control at 35 g/ha [1, 8] [%] | pest or weed control at 70 g/ha [1, 8] [%] | pest or weed control at 140 g/ha [1, 8] [%] | pest or weed control at 35 g/ha [2, 9] [%] | pest or weed control at 70 g/ha [2, 9] [%] | further results |
| --- | --- | --- | --- | --- | --- | --- | --- | --- | --- | --- | --- | --- | --- | --- | --- | --- | --- | --- | --- | --- | --- |
| C=Cc1c(C(=O)O)nc(-c2ccc3c(c2)OC(F)(F)O3)c(F)c1N [Compound 30] | 0 to 29 | 0 to 29 | 0 to 29 | 45 to 59 | 60 to 74 | 75 to 84 | 0 to 29 | 0 to 29 | 0 to 29 | 0 to 29 | 0 to 29 | 85 to 94 | 45 to 59 | 75 to 84 | 75 to 84 | 60 to 74 | 75 to 84 | 85 to 94 | 75 to 84 | 75 to 84 | pest or weed control at 140 g/ha [2, 9]: 75 to 84%; pest or weed control at 35 g/ha [2, 10]: 0 to 29%; pest or weed control at 70 g/ha [2, 10]: 0 to 29%; pest or weed control at 140 g/ha [2, 10]: 0 to 29%; pest or weed control at 35 g/ha [2, 11]: 45 to 59%; pest or weed control at 70 g/ha [2, 11]: 60 to 74%; pest or weed control at 140 g/ha [2, 11]: 75 to 84%; pest or weed control at 35 g/ha [2, 12]: 0 to 29%; pest or weed control at 70 g/ha [2, 12]: 0 to 29%; pest or weed control at 140 g/ha [2, 12]: 0 to 29%; pest or weed control at 35 g/ha [2, 13]: 0 to 29%; pest or weed control at 70 g/ha [2, 13]: 0 to 29%; pest or weed control at 140 g/ha [2, 13]: 0 to 29%; pest or weed control at 35 g/ha [2, 14]: 0 to 29%; pest or weed control at 70 g/ha [2, 14]: 95 to 100%; pest or weed control at 140 g/ha [2, 14]: 95 to 100% |
| C=Cc1c(C(=O)OC)nc(-c2cc3c(cc2F)OCO3)c(F)c1N [Compound 31] | 0 to 29 | 0 to 29 | 0 to 29 | 0 to 29 | 0 to 29 | 45 to 59 | 85 to 94 | 85 to 94 | 95 to 100 | 45 to 59 | 85 to 94 | 85 to 94 | 0 to 29 | 0 to 29 | 45 to 59 | 95 to 100 | 95 to 100 | 95 to 100 | 0 to 29 | 60 to 74 | pest or weed control at 140 g/ha [2, 9]: 75 to 84%; pest or weed control at 35 g/ha [2, 10]: 0 to 29%; pest or weed control at 70 g/ha [2, 10]: 0 to 29%; pest or weed control at 140 g/ha [2, 10]: 0 to 29%; pest or weed control at 35 g/ha [2, 11]: 0 to 29%; pest or weed control at 70 g/ha [2, 11]: 30 to 44%; pest or weed control at 140 g/ha [2, 11]: 45 to 59%; pest or weed control at 35 g/ha [2, 12]: 0 to 29%; pest or weed control at 70 g/ha [2, 12]: 0 to 29%; pest or weed control at 140 g/ha [2, 12]: 0 to 29%; pest or weed control at 35 g/ha [2, 13]: 0 to 29%; pest or weed control at 70 g/ha [2, 13]: 0 to 29%; pest or weed control at 140 g/ha [2, 13]: 0 to 29%; pest or weed control at 35 g/ha [2, 14]: 0 to 29%; pest or weed control at 70 g/ha [2, 14]: 0 to 29%; pest or weed control at 140 g/ha [2, 14]: 0 to 29% |
| COC(=O)c1nc(-c2cc3c(cc2F)OC(F)(F)O3)cc(N)c1Cl [Compound 32] | 95 to 100 | 95 to 100 | 95 to 100 | 60 to 74 | 60 to 74 | 75 to 84 | 0 to 29 | 45 to 59 | 75 to 84 | 75 to 84 | 75 to 84 | 75 to 84 | 85 to 94 | 85 to 94 | 85 to 94 | 0 to 29 | 60 to 74 | 60 to 74 | 60 to 74 | 75 to 84 | pest or weed control at 140 g/ha [2, 9]: 75 to 84%; pest or weed control at 35 g/ha [2, 11]: 60 to 74%; pest or weed control at 70 g/ha [2, 11]: 60 to 74%; pest or weed control at 140 g/ha [2, 11]: 75 to 84%; pest or weed control at 35 g/ha [2, 12]: 0 to 29%; pest or weed control at 70 g/ha [2, 12]: 0 to 29%; pest or weed control at 140 g/ha [2, 12]: 0 to 29%; pest or weed control at 35 g/ha [2, 13]: 45 to 59%; pest or weed control at 70 g/ha [2, 13]: 60 to 74%; pest or weed control at 140 g/ha [2, 13]: 60 to 74%; pest or weed control at 35 g/ha [2, 14]: 95 to 100%; pest or weed control at 70 g/ha [2, 14]: 95 to 100%; pest or weed control at 140 g/ha [2, 14]: 95 to 100% |
